Source: patent US20180296542A1, “IMINOSUGARS FOR IMPROVING BONE MINERAL DENSITY IN BONE DISEASE” (Saint Louis University, priority 2015, published 2018)
Several values for one entry are separate records, joined by “and”; a condition that tells them apart may be missing. Equal entries are not always repeated. Entries after “also recorded” stand apart in the source; their conditions may differ.

Columns and labels:
[1] = system: TNSALP-null (Akp2^−/−) mice, in vivo model of bone disease (WT, Het, KO); assay: MicroCT of femur cortical bone (Example 2); conditions: for Normalized bone area-cortical bone volume fraction: FIG. 17
Method: TNSALP-null (Akp2^−/−) mice served as an in vivo model of bone disease to analyze the effects of the iminosugar, Miglustat.
(§1) Mice were obtained, bred and genotyped as described above. Five mice of each genotype (Wild-type (WT), heterozygous (Het), and homozygous (KO)) were included in each treatment group (i.p. administration of PBS, 400 mg/kg Miglustat, and 1200 mg/kg Miglustat as described above). A total of 44 mice were analyzed (1 Akp2^−/− homozygous mouse was omitted in the PBS group). Mice were scanned using microCT and analyzed as described above. Cortical bone in the middle 20% of bone length from trochanter to distal condyles in the femur was scanned and cortical thickness and bone mineral density were obtained. Cortical thickness (Ct.Th, μm) was used as an indication of average thickness of cortical bone. Trabecular bone of the final 625 μm before the femoral growth plate was scanned.
As depicted in FIG. 14, Miglustat improved cortical thickness in heterozygous mice at 400 mg/kg. […] Cortical bone area (Ct.Ar, mm^2) was determined by dividing cortical volume by the number of slices X slice thickness. As depicted in FIG. 16, cortical bone area increased in Wild-type (WT) and Heterozygotes (Het) administered 400 mg/kg Miglustat. […] In Homozygotes administered 1,200 mg/kg normalized bone area-cortical bone volume fraction decreased.
The attenuation depended on physical density and electron density of bone. As depicted in FIG. 18, high doses of Miglustat improved tissue mineral density in Heterozygotes.

[2] = system: TNSALP-null (Akp2^−/−) mice (WT, Het, KO); assay: Growth (percent change in weight) and toxicity in treated mice (Example 2); format: in vivo
Method: At the age of one month, mice were administered 100 μL injections of phosphate-buffered saline (PBS) with 0 mg/kg, 400 mg/kg, or 1200 mg/kg of Miglustat (250 mg/mL) to the peritoneal cavity for gradual diffusion of the drug. Mice were massed each day to adjust Miglustat dosages to body weight. Intraperitoneal injections (IP) continued daily for one month before mice were euthanized with CO2 at the age of two months. Mice were on a Pyridoxine Supplement Diet (“Vitamin B6 Diet”) to prevent seizures. NAPA NECTAR™ (Systems Engineering™) was provided every alternating day to prevent dehydration. Urine samples were collected once a week and blood samples were collected from cheek tissue at the beginning and end of treatment.
as §1, with “Cortical thickness (Ct.Th, μm) was used as an indication of average thickness of cortical bone. Trabecular bone of the final 625 μm before the femoral growth plate was scanned.” left out

[3] = system: TNSALP-null (Akp2^−/−) mice, in vivo model of infantile HPP (wild-type, heterozygous, homozygous); assay: MicroCT bone mineral density of femur cortical bone after one month of Miglustat (Example 1); conditions: for Mean/Density [mg HA/ccm] of TV (Apparent) (BMD), individual mice: femur diaphysis cortical bone, one value per mouse
Method: -null (Akp2^-/-) mice served as an in vivo model of infantile HPP to analyze the effects of Miglustat as a treatment for HPP through BMD measurements. […] Resembling patients with HPP, elevated substrate concentrations of PEA, PPi, and PLP were found in urine samples from knock-out mice. […] All experiments were conducted with the highest standards of humane animal care at Saint Louis University under an approved IACUC protocol. Mice were genotyped as wild-type, heterozygous, or homozygous through DNA extraction, polymerase chain reaction (PCR), and gel electrophoresis. After DNA was extracted from an ear tissue sample, PCR was used to generate copies of the DNA for gel electrophoresis (2% agarose and Tris-Acetate-EDTA (TAE) buffer). The following primers were used: [NT] ID NO:1), [NT] ID NO:2), [NT] ID NO:3, wild-type allele: 160 bp, mutant allele: 195 bp). At the age of one month, mice were administered 100 μL injections of phosphate-buffered saline (PBS) with 0 mg/kg, 400 mg/kg, or 1200 mg/kg of Miglustat (250 mg/mL) to the peritoneal cavity for gradual diffusion of the drug. Mice were massed each day to adjust Miglustat dosages to body weight. Intraperitoneal injections (IP) continued daily for one month before mice were euthanized with CO2 at the age of two months. Mice were on a Pyridoxine Supplement Diet (“Vitamin B6 Diet”) to prevent seizures. […] (Systems EngineeringTM) was provided every alternating day to prevent dehydration. Urine samples were collected once a week and blood samples were collected from cheek tissue at the beginning and end of treatment. Full-body ventral and side-view x-rays were taken after euthanizing the mice. The left anatomical legs were dissected to obtain the femoral bones. Femurs were then frozen before being placed in 10% formalin the day prior to microCT scanning. Four bones were inserted into a gel cast (2.5% agarose and TAE buffer) at a time and covered with 2.5% agarose and TAE buffer to create gel capsules that were placed in sample tubes (diameter: 11.5 mm, height: 75 mm) for microCT scanning Cortical bone scans (voxel size: 12 μm) were performed at the diaphysis (femoral shaft) using a SCANCO μCT 35 system (SCANCO Medical; Brü[…], Switzerland). MicroCT scans were analyzed using SCANCO Medical microCT software to produce three dimensional reconstructions of the bones and determine bone mineral density (BMD) as the mean/density [mg HA/ccm] of total volume (TV) (Apparent). The total length of each bone was measured as the distance from the greater trochanter to the distal end. Only the middle 20% of each femur was accounted for during cortical bone analysis. Statistical analysis included calculating the average mean/density [mg HA/ccm] of TV (Apparent) and standard error for each treatment group to determine the estimated standard deviation of the statistics. Standard deviation and standard error were not calculated for homozygous mice due to count values below three. Full-body ventral and side x-rays were taken and microCT scans were performed on the femurs of each mouse. The bone mineral densities of the femurs were recorded in units of hydroxyapatite density as the mean/density [mg HA/ccm] of TV (apparent). The average bone mineral densities (average mean/density [mg HA/ccm] of TV (apparent) were then calculated for each treatment group. Statistical analysis, including standard deviation and standard error, was only performed for the wild-types and heterozygotes due to insufficient data for the homozygous mice. A minimum of three mice were required for statistical analysis.

[4] = system: patients with Type 1 GD; conditions: cited from earlier work
[5] = homozygous mice, Miglustat 400 mg/kg

CCCCN1C[C@H](O)[C@@H](O)[C@H](O)[C@H]1CO [Miglustat, (2R,3R,4R,5S)-1-butyl-2-(hydroxymethyl)piperidine-3,4,5-triol]
Total cross sectional area inside the periosteal envelope (Tt.Ar) ([1]; Heterozygotes, 400 mg/kg, FIG. 15): slight increase
Tissue mineral density ([1]; Heterozygotes, high doses, FIG. 18): improved
Normalized bone area-cortical bone volume fraction ([1]; Homozygotes, 1,200 mg/kg): decreased
Cortical bone area (Ct.Ar) ([1]; Wild-type (WT) and Heterozygotes (Het), 400 mg/kg, FIG. 16): increased
Normalized bone area-cortical bone volume fraction ([1]; Wild-type and Heterozygotes): did not have an effect
Cortical thickness (Ct.Th) ([1]; heterozygous mice, 400 mg/kg, FIG. 14): improved
Toxicity ([2]; 400 mg/kg/day and 1,200 mg/kg/day delivered intraperitoneally): no toxicity was observed
Growth as measured by percent change in weight ([2]; high doses of Miglustat, particularly notable in WT and Het mice, FIG. 12): impeded growth
Average BMD with Miglustat dosage versus PBS groups (in words) ([3]; across genotypes, except wild-type mice at 1200 mg/kg, one month of treatment, 1200 mg/kg): higher average BMDs; also recorded: BMD increased with Miglustat dosage; also recorded: higher average BMD values
Average BMD versus PBS heterozygotes (in words) ([3]; heterozygous mice, Miglustat 400 mg/kg): slight improvement; also recorded: higher average BMD value
Mean/Density [mg HA/ccm] of TV (Apparent) (BMD), individual mice ([3]; heterozygous mice, Miglustat 400 mg/kg IP daily for one month): 983.17 mg HA/ccm and 937.07 mg HA/ccm and 968.62 mg HA/ccm
Average Mean/Density [mg HA/ccm] of TV (Apparent) (average BMD) ([3]; heterozygous mice, Miglustat 400 mg/kg, n=3, ± standard error): 962.95±13.61 mg HA/ccm and 962.95 mg HA/ccm
Average BMD versus PBS heterozygotes and PBS wild-types (in words) ([3]; heterozygous mice, Miglustat 1200 mg/kg): even greater improvement; also recorded: match or even surpass; also recorded: matched and surpassed
Mean/Density [mg HA/ccm] of TV (Apparent) (BMD), individual mice ([3]; heterozygous mice, Miglustat 1200 mg/kg IP daily for one month): 980.88 mg HA/ccm and 984.82 mg HA/ccm and 979.78 mg HA/ccm and 1006.65 mg HA/ccm
Average Mean/Density [mg HA/ccm] of TV (Apparent) (average BMD) ([3]; heterozygous mice, Miglustat 1200 mg/kg, n=4, ± standard error): 988.03±6.30 mg HA/ccm and 988.03 mg HA/ccm
Differences in mineralization in microCT scans between treatments ([3]; heterozygous mice, PBS vs 400 vs 1200 mg/kg Miglustat): not discernable
Mean/Density [mg HA/ccm] of TV (Apparent) (BMD), individual mice ([3]; homozygous (Akp2^−/−) mice, Miglustat 400 mg/kg IP daily for one month): 881.08 mg HA/ccm and 1054.98 mg HA/ccm
Average Mean/Density [mg HA/ccm] of TV (Apparent) (average BMD) ([3]; homozygous (Akp2^−/−) mice, Miglustat 400 mg/kg, n=2): 968.03 mg HA/ccm
Average BMD versus knockouts on PBS (in words) [3, 5]: substantial difference; also recorded: higher average BMD
Cortical bone mineralization at the diaphysis in microCT scans [3, 5]: improper cortical bone mineralization
Average BMD versus other treatment groups (in words) ([3]; wild-type mice, Miglustat 400 mg/kg): greater; also recorded: increased; also recorded: highest average BMD
Mean/Density [mg HA/ccm] of TV (Apparent) (BMD), individual mice ([3]; wild-type mice, Miglustat 400 mg/kg IP daily for one month): 1000.00 mg HA/ccm and 990.58 mg HA/ccm and 991.31 mg HA/ccm and 1004.30 mg HA/ccm and 995.88 mg HA/ccm
Average Mean/Density [mg HA/ccm] of TV (Apparent) (average BMD) ([3]; wild-type mice, Miglustat 400 mg/kg, n=5, ± standard error): 996.41±2.60 mg HA/ccm and 996.41 mg HA/ccm
Average BMD versus PBS wild-type group (in words) ([3]; wild-type mice, Miglustat 1200 mg/kg): no change
Mean/Density [mg HA/ccm] of TV (Apparent) (BMD), individual mice ([3]; wild-type mice, Miglustat 1200 mg/kg IP daily for one month): 973.20 mg HA/ccm and 985.09 mg HA/ccm and 969.63 mg HA/ccm and 967.00 mg HA/ccm
Average Mean/Density [mg HA/ccm] of TV (Apparent) (average BMD) ([3]; wild-type mice, Miglustat 1200 mg/kg, n=4, ± standard error): 974.48±3.63 mg HA/ccm and 974.48 mg HA/ccm
BMD [4]: increased
Bone pain [4]: alleviated
